Assay results taken from patent US20230067929A1, “HETEROCYCLIC DERIVATIVES, PHARMACEUTICAL COMPOSITIONS AND THEIR USE IN THE TREATMENT, AMELIORATION OR PREVENTION OF CANCER” (Tolremo Therapeutics AG, priority 2018, published 2023).

Each compound was assayed on A375 cells (assay: A375 cell immunofluorescence assay (with 1 μM S1152 and 0.5 μM S1008), EC50). Conditions: 1 μM S1152 + 0.5 μM S1008, one day, ratio FL2/FL3 staining (sc-365823 antibody).
Format: cell-based
Description: One thousand four hundred A375 cells were seeded in each well of a 384 well microplate. One day later they were treated with 1 μM S1152 (Selleckchem) in dimethyl sulfoxide, 0.5 μM S1008 (Selleckchem) and dose ranges of invention compounds for one day in Dulbecco's Modified Eagle's Medium supplemented with 10% fetal calf serum and 2 mM (2S)-2-amino-4-carbamoylbutanoic acid. Wells were incubated with 4% polyoxymethylene (Sigma Aldrich 158127) at ambient temperature. After ten minutes, polyoxymethylene was replaced with phosphate-buffered saline. After one minute phosphate-buffered saline was replaced with 0.2% polyethylene glycol octylphenyl ether in phosphate-buffered saline. After ten minutes at ambient temperature 0.2% polyethylene glycol octylphenyl ether in phosphate-buffered saline was replaced with 1% aminoethanoic acid in phosphate-buffered saline. […] After one hour at 37° C., the solution was replaced with phosphate-buffered saline twice. Phosphate-buffered saline was replaced with 2 μg/ml A-11029 (Invitrogen) in 0.05% polyoxyethylene (20) sorbitan monolaurate in phosphate-buffered saline. […] After one hour at ambient temperature in the dark, signal in wells was measured with a Acumen Cellista. 3,8-Diamino-5-[3-(diethylmethylammonio)propyl]-6-phenylphenanthridinium diiodide-positive objects were defined in FL3 (565-600 nm) with a perimeter between 50-800 μm and a total intensity of 10000-1000000 FLU. Signal in FL2 (500-530 nm) was measured in defined objects. A normalized ratio of total ln FL2 over total ln FL3 staining was log transformed. A non-linear regression (variable slope, 4 parameters) was used to calculate EC50 values using GraphPad Prism (Version 7.0d).

| EC50 [µM] | Structure (SMILES) |
| --- | --- |
| 1 to 10 | CCC(=O)N1CCCC(c2nc(Nc3cccc(F)c3)cc(-c3cccnc3)n2)C1 (stereo not shown) |
| > 10 | CCC(=O)N1CCCC(c2nc(Nc3cccc(F)c3)cc(C3=CCCC3)n2)C1 (stereo not shown) |
| 1 to 10 | CCC(=O)N1CCCC(c2nc(Nc3cccc(F)c3)cc(-c3cccc(N4CCOCC4)c3)n2)C1 (stereo not shown) |
| > 10 | CCC(=O)N1CCCC(c2nc(Nc3cccc(F)c3)cc(-c3cccc(OC(F)F)c3)n2)C1 (stereo not shown) |
| > 10 | CCC(=O)N1CCCC(c2nc(Nc3cccc(F)c3)cc(-c3ccc(N(C)C)nc3)n2)C1 (stereo not shown) |
| 1 to 10 | CCC(=O)N1CCCC(c2nc(Nc3cccc(F)c3)cc(-c3cncc(C)c3)n2)C1 (stereo not shown) |
| > 10 | CCC(=O)N1CCCC(c2nc(Nc3cccc(F)c3)cc(-c3ccccc3OC(F)(F)F)n2)C1 (stereo not shown) |
| > 10 | CCC(=O)N1CCCC(c2nc(Nc3cccc(F)c3)cc(-c3ccsc3)n2)C1 (stereo not shown) |
| 1 to 10 | CCC(=O)N1CCCC(c2nc(Nc3cccc(F)c3)cc(-c3cncc(OC)c3)n2)C1 (stereo not shown) |
| > 10 | CCC(=O)N1CCCC(c2nc(Nc3cccc(F)c3)cc(-c3cnn(C)c3)n2)C1 (stereo not shown) |
| 1 to 10 | COc1csc(-c2cc(Nc3cccc(F)c3)cc(C3CCCN(C(C)=O)C3)n2)c1 (stereo not shown) |
| 1 to 10 | COc1cncc(-c2cc(Nc3cccc(F)c3)cc(C3CCCN(C(C)=O)C3)n2)c1 (stereo not shown) |
| 1 to 10 | CC(=O)N1CC(c2cc(Nc3cccc(F)c3)cc(-c3cccnc3)n2)=CCC1C (stereo not shown) |
| 1 to 10 | CC(=O)N1CCCC(c2cc(Nc3cccc(F)c3)cc(-c3c(C)noc3C)n2)C1 (stereo not shown) |
| 1 to 10 | CC(=O)N1CCCC(c2cc(Nc3cccc(F)c3)cc(-c3cncnc3)n2)C1 (stereo not shown) |
| > 10 | Fc1cccc(Nc2cc(-c3cccnc3)nc(C3CCCN(CC(F)(F)F)C3)n2)c1 (stereo not shown) |
| > 10 | CC(=O)N1CCCC(c2cc(Nc3cccc(F)c3)nc(-c3cccnc3)c2)C1 (stereo not shown) |
| > 10 | CC(=O)N1CC2(c3nc(Nc4cccc(F)c4)cc(-c4cccnc4)n3)CCC1CC2 |
| > 10 | CN1CCC(c2nc(Nc3cccc(F)c3)cc(-c3cccnc3)n2)CC1=O (stereo not shown) |
| > 10 | CN1CC(c2nc(Nc3cccc(F)c3)cc(-c3cccnc3)n2)CCC1=O (stereo not shown) |
| < 1 | CC(=O)N1CC(C)CC(c2nc(Nc3cccc(F)c3)cc(-c3cccnc3)n2)C1 (stereo not shown) |
| > 10 | O=C1CCC2CCC(c3nc(Nc4cccc(F)c4)cc(-c4cccnc4)n3)CN12 (stereo not shown) |

| EC50 [µM] | Structure (SMILES) |
| --- | --- |
| < 1 | CC(=O)N1C[C@H](c2nc(Nc3cccc(F)c3)cc(-c3cccnc3)n2)CC[C@@H]1C |
| > 10 | CN1CC(c2nc(Nc3cccc(F)c3)cc(-c3cccnc3)n2)CC1=O (stereo not shown) |
| > 10 | CC(=O)N1CC(c2nc(Nc3cccc(F)c3)cc(-c3cccnc3)n2)CC(F)(F)C1 (stereo not shown) |
| < 1 | CC(=O)N1CC(c2ccccc2)CC(c2nc(Nc3cccc(F)c3)cc(-c3cccnc3)n2)C1 (stereo not shown) |
| > 10 | CC(=O)N1CC(c2nc(Nc3cccc(F)c3)cc(-c3cccnc3)n2)CCC1(C)C (stereo not shown) |
| 1 to 10 | CC(=O)N1CC(c2nc(Nc3cccc(F)c3)cc(-c3cccnc3)n2)CC2CCCCC21 (stereo not shown) |
| < 1 | CC(=O)N1CCCCC(c2nc(Nc3cccc(F)c3)cc(-c3cccnc3)n2)C1 (stereo not shown) |
| > 10 | CC(=O)N1CC(c2nc(Nc3cccc(F)c3)cc(-c3cccnc3)n2)Cc2ccccc21 (stereo not shown) |
| 1 to 10 | CC(=O)N1CC(OCc2ccccc2)CC(c2nc(Nc3cccc(F)c3)cc(-c3cccnc3)n2)C1 (stereo not shown) |
| > 10 | CC(=O)N1CCCC(c2nc(Nc3cccc(F)c3)cc(-c3cccnc3)n2)C1C (stereo not shown) |
| < 1 | CC(=O)N1CC(c2nc(Nc3cccc(F)c3)cc(-c3cccnc3)n2)CC(C)C1C (stereo not shown) |
| 1 to 10 | COC(=O)N1CCOCC(c2nc(Nc3cccc(F)c3)cc(-c3cccnc3)n2)C1 (stereo not shown) |
| 1 to 10 | CC(=O)N1CCOCC(c2nc(Nc3cccc(F)c3)cc(-c3cccnc3)n2)C1 (stereo not shown) |
| > 10 | CC(=O)N1CC(c2nc(Nc3cccc(F)c3)cc(-c3cccnc3)n2)CCC1c1ccccc1 (stereo not shown) |
| < 1 | CC(=O)N1C[C@H](c2nc(Nc3cccc(C)c3)cc(-c3cccnc3)n2)CC[C@@H]1C(F)(F)F |
| < 1 | CC(=O)N1C[C@H](c2nc(Nc3cccc(F)c3)cc(-c3cccnc3)n2)CC[C@@H]1C(F)(F)F |
| 1 to 10 | O=C1CCC2C(c3nc(Nc4cccc(F)c4)cc(-c4cccnc4)n3)CCCN12 (stereo not shown) |
| > 10 | CC(=O)NCCOCCOCCNC(=O)c1ccc(-c2cc(Nc3cccc(F)c3)nc(C3CCCN(C(C)=O)C3)n2)cc1 (stereo not shown) |
| 1 to 10 | CC(=O)N1CCCC(c2cc(Nc3cccc(F)c3)nc(-c3cccnc3)n2)C1 (stereo not shown) |
| 1 to 10 | CC(=O)N1CCCC(c2cc(-c3cccnc3)nc(Nc3cccc(F)c3)n2)C1 (stereo not shown) |
| 1 to 10 | CC(=O)NCCOCCOCCOCC(=O)Nc1ccc(-c2cc(Nc3cccc(F)c3)nc(C3CCCN(C(C)=O)C3)n2)cc1 (stereo not shown) |
| > 10 | O=C1CCCC2CCC(c3nc(Nc4cccc(F)c4)cc(-c4cccnc4)n3)CN12 (stereo not shown) |

| EC50 [µM] | Structure (SMILES) |
| --- | --- |
| 1 to 10 | O=C1CCCC2C(c3nc(Nc4cccc(F)c4)cc(-c4cccnc4)n3)CCCN12 (stereo not shown) |
| < 1 | COc1cncc(-c2cc(Nc3cccc(F)c3)nc([C@@H]3CCCN(C(C)=O)C3)n2)c1 |
| 1 to 10 | CC(=O)NCCOCCOCCOc1cncc(-c2cc(Nc3cccc(F)c3)nc(C3CCCN(C(C)=O)C3)n2)c1 (stereo not shown) |
| < 1 | CC(=O)N1C[C@H](c2nc(Nc3cccc(F)c3)cc(-c3cncc(O)c3)n2)CC[C@@H]1C |
| > 10 | CC(=O)N1C[C@@H](c2nc(Nc3cccc(F)c3)cc(-c3cncc(O)c3)n2)CC[C@H]1C |
| > 10 | C#Cc1cc(Nc2cccc(F)c2)nc(C2CCCN(C(C)=O)C2)n1 (stereo not shown) |
| > 10 | CC(=O)N1CCCC(c2nc(Nc3cccc(F)c3)cc(-c3cnn[nH]3)n2)C1 (stereo not shown) |
| 1 to 10 | CC(=O)N1CC(O)CC(c2nc(Nc3cccc(F)c3)cc(-c3cccnc3)n2)C1 (stereo not shown) |
| < 1 | CC(=O)N1CCCC(c2nc(Nc3cccc(F)c3)cc(-c3cncc(C4COC4)c3)n2)C1 (stereo not shown) |
| < 1 | CC(=O)N1CCCC(c2nc(Nc3cccc(C)c3)cc(-c3cncc(N4CCOCC4)c3)n2)C1 (stereo not shown) |
| > 10 | CC(=O)N1CCCC(c2nc(Nc3cccc(F)c3)cc(-c3cncc(N4CCN(C)CC4)c3)n2)C1 (stereo not shown) |
| < 1 | CC(=O)N1CCCC(c2nc(Nc3cccc(F)c3)cc(-c3cncc4nc(C)oc34)n2)C1 (stereo not shown) |
| > 10 | CC(=O)N1CCCC(c2nc(Nc3cccc(F)c3)cc(-c3cncc4cc[nH]c34)n2)C1 (stereo not shown) |
| < 1 | CC(=O)N1CCCC(c2nc(Nc3cccc(F)c3)cc(-c3cncc(-c4nccs4)c3)n2)C1 (stereo not shown) |
| < 1 | CC(=O)N1CCCC(c2nc(Nc3cccc(C)c3)cc(-c3cncc(-c4nccs4)c3)n2)C1 (stereo not shown) |
| > 10 | CC(=O)N1CCCC(c2nc(Nc3cccc(F)c3)cc(-c3cncc(C(=O)O)c3)n2)C1 (stereo not shown) |
| 1 to 10 | CC(=O)N1CCCC(c2nc(Nc3cccc(F)c3)cc(-c3cncc(C(=O)N4CCOCC4)c3)n2)C1 (stereo not shown) |
| 1 to 10 | CC(=O)N1CCCC(c2nc(Nc3cccc(F)c3)cc(-c3cncc(C(=O)N4C[C@@H]5C[C@H]4CO5)c3)n2)C1 (stereo partly shown) |
| > 10 | CC(=O)N1CCCC(c2nc(Nc3cccc(F)c3)cc(-c3cncc(C(=O)N4CCS(=O)(=O)CC4)c3)n2)C1 (stereo not shown) |
| 1 to 10 | CC(=O)N1CCCC(c2nc(Nc3cccc(F)c3)cc(-c3ccc(N4CCOCC4)nc3)n2)C1 (stereo not shown) |
| 1 to 10 | CC(=O)N1CCCC(c2nc(Nc3cccc(F)c3)cc(-c3ccc(N4C[C@@H]5C[C@H]4CO5)nc3)n2)C1 (stereo partly shown) |
| > 10 | CC(=O)N1CCCC(c2nc(Nc3cccc(F)c3)cc(-c3ccc(N4CCN(C)CC4)nc3)n2)C1 (stereo not shown) |

| EC50 [µM] | Structure (SMILES) |
| --- | --- |
| > 10 | CC(=O)N1CCCC(c2nc(Nc3cccc(F)c3)cc(-c3ccc(N4CCS(=O)(=O)CC4)nc3)n2)C1 (stereo not shown) |
| < 1 | CC(=O)N1C[C@H](c2nc(Nc3cncc(C)c3)cc(-c3cccnc3)n2)CC[C@@H]1C |
| > 10 | CC(=O)N1CCCC(c2nc(Nc3ccccn3)cc(-c3cccnc3)n2)C1 (stereo not shown) |
| 1 to 10 | CC(=O)N1CCCC(c2nc(Nc3ccccn3)cc(-c3cncc4[nH]ccc34)n2)C1 (stereo not shown) |
| > 10 | CC(=O)N1CCCC(c2nc(Nc3ccccn3)cc(-c3cncnc3)n2)C1 (stereo not shown) |
| 1 to 10 | CC(=O)N1CCCC(c2nc(Nc3cncc(C)c3)cc(-c3cncnc3)n2)C1 (stereo not shown) |
| 1 to 10 | CC(=O)N1CCCC(c2nc(Nc3cncc(C)c3)cc(-c3cncc4[nH]ccc34)n2)C1 (stereo not shown) |
| 1 to 10 | CC(=O)N1CCCC(c2nc(Nc3cccnc3)cc(-c3cccnc3)n2)C1 (stereo not shown) |
| > 10 | CC(=O)N1CCCC(c2nc(Nc3cccnc3)cc(-c3cncc4[nH]ccc34)n2)C1 (stereo not shown) |
| > 10 | CC(=O)N1CCCC(c2nc(Nc3cccnc3)cc(-c3cncnc3)n2)C1 (stereo not shown) |
| > 10 | CC(=O)N1CCCC(c2nc(Nc3nc(C)co3)cc(-c3cccnc3)n2)C1 (stereo not shown) |
| > 10 | CC(=O)N1CCCC(c2nc(Nc3ccon3)cc(-c3cncc4[nH]ccc34)n2)C1 (stereo not shown) |
| 1 to 10 | CC(=O)N1CCCC(c2nc(Nc3ccncc3)cc(-c3cccnc3)n2)C1 (stereo not shown) |
| 1 to 10 | CC(=O)N1CCCC(c2nc(Nc3cncc(C)n3)cc(-c3cccnc3)n2)C1 (stereo not shown) |
| > 10 | CC(=O)N1CCCC(c2nc(Nc3cncc(C)n3)cc(-c3cncnc3)n2)C1 (stereo not shown) |
| > 10 | CC(=O)N1CCCC(c2nc(Nc3cncnc3)cc(-c3cccnc3)n2)C1 (stereo not shown) |
| > 10 | CC(=O)N1CCCC(c2nc(Nc3ccncn3)cc(-c3cccnc3)n2)C1 (stereo not shown) |
| < 1 | CC(=O)N1C[C@H](c2nc(Nc3cncc(C)c3)cc(-c3cncc(C)c3)n2)CC[C@@H]1C |
| < 1 | CC(=O)N1C[C@H](c2nc(Nc3cncc(C)c3)cc(-c3cncc4[nH]ccc34)n2)CC[C@@H]1C |
